Read-outs that look alike come from different tables or passages of the source.
Legend:
[1] = biological target: EGFR D770-N771 ins NPG kinase (Homo sapiens (Human), UniProt P00533, INS770NPG); experiment: In-vitro enzyme experiment 1 (HTRF kinase assay), D770-N771 ins NPG kinase; format: biochemical
[2] = tested on: KC-1362 BaF3-EGFR D770-N771 ins NPG cells; experiment: Anti-proliferative activity on KC-1362 BaF3-EGFR D770-N771 ins NPG cells; format: cell-based; conditions: Ba/F3 EGFR
[3] = biological target: EGFR-Del19/T790M/C797S kinase (Homo sapiens, UniProt P00533, C797S/T790M, form not given); experiment: In-vitro enzyme experiment 2 (HTRF kinase assay), EGFR Del19 T790M C797S; format: biochemical; conditions: read-out: enzyme inhibition IC50 (nM) EGFR-Del19/T790M/C797S
Method: The specific experiment was as follows: • 1. […] Test method of activity of compound • a) a compound diluent was transferred to each well of an assay plate (784075, Greiner) using Echo 550; • b) the assay plate was sealed and centrifuged at 1,000 g for 1 min; • c) 2×EGFR (D770-N771 ins NPG T790M) was prepared in a 1× kinase buffer; • d) 5 μl of the 2×EGFR (D770-N771 ins NPG T790M) was added to a 384-well assay plate (784075, Greiner); • e) the assay plate was centrifuged at 1,000 g for 30 s and incubated at room temperature for 10 min; • f) 2× TK-substrate-biotin (2 μM) and ATP were added to the 1× kinase buffer and mixed; • g) the reaction was started after adding 5 μl of the TK-substrate-biotin (2 μM) and ATP mixture; • h) the assay plate was centrifuged at 1,000 g for 30 s; and the assay plate was sealed and incubated at room temperature for 40 min; • i) 4× Sa-XL 665 was prepared in an HTRF detection buffer; • j) 5 μl of the Sa-XL 665 and 5 μl of a TK-antibody-cryptate were added to each well of the assay plate; • k) the assay plate was centrifuged at 1,000 g for 30 s and incubated at room temperature for 1 h; and • l) fluorescence signals at 615 nm (cryptate) and 665 nm (XL665) were read on an Envision 2104 reader. • 3. Data analysis • 3.1 Calculation of ratio (665/615 nm) of each well • 3.2 Calculation of inhibition rate
(§1) [formula] • 3.3 Calculation of IC50 value of compound and drawing dose-effect curve of compound • IC50 values were calculated using GraphPad 6.0 by applying a non-linear regression curve (dose-effect relationship-variable slope) of the logarithm of the compound concentration versus the inhibition rate.
The preparation of the kinase buffer, the test method of the activity of the compound, and the data analysis referred to the relevant definitions in example 117, wherein step c) of the test method of the activity of the compound was replaced by preparing 2×EGFR Del19 T790M C797S in the 1× kinase buffer.

[4] = tested on: A549 EGFR-WT; experiment: Cell proliferation inhibition experiment (CCK-8), A549; conditions: Homo sapiens, A549, 72 h, read-out: cell proliferation inhibition IC50 (μM) A549, 72 h, CCK-8
[5] = biological target: EGFR (D770-N771 ins NPG T790M) kinase (Homo sapiens (Human), UniProt P00533, INS770NPG/T790M); experiment: In-vitro enzyme experiment 1 (HTRF kinase assay), EGFR D770-N771 ins NPG T790M; format: biochemical
Method: The specific experiment was as follows: • 1. Preparation of 1× concentration kinase buffer • 1 volume of 5 times concentration of an enzyme buffer diluted with 4 volumes of distilled water; 5 mM magnesium chloride; 1 mM DTT; and 1 mM MnCl2. • 2. Test method of activity of compound • a) a compound diluent was transferred to each well of an assay plate (784075, Greiner) using Echo 550; • b) the assay plate was sealed and centrifuged at 1,000 g for 1 min; • c) 2×EGFR (D770-N771 ins NPG T790M) was prepared in a 1× kinase buffer; • d) 5 μl of the 2×EGFR (D770-N771 ins NPG T790M) was added to a 384-well assay plate (784075, Greiner); • e) the assay plate was centrifuged at 1,000 g for 30 s and incubated at room temperature for 10 min; • f) 2× TK-substrate-biotin (2 μM) and ATP were added to the 1× kinase buffer and mixed; • g) the reaction was started after adding 5 μl of the TK-substrate-biotin (2 μM) and ATP mixture; • h) the assay plate was centrifuged at 1,000 g for 30 s; and the assay plate was sealed and incubated at room temperature for 40 min; • i) 4× Sa-XL 665 was prepared in an HTRF detection buffer; • j) 5 μl of the Sa-XL 665 and 5 μl of a TK-antibody-cryptate were added to each well of the assay plate; • k) the assay plate was centrifuged at 1,000 g for 30 s and incubated at room temperature for 1 h; and • l) fluorescence signals at 615 nm (cryptate) and 665 nm (XL665) were read on an Envision 2104 reader. • 3. Data analysis • 3.1 Calculation of ratio (665/615 nm) of each well • 3.2 Calculation of inhibition rate
as §1
Y=lowest value+(highest value−lowest value)/(1+10^((Log IC50−X)×slope)) • X: logarithm of inhibitor concentration; and Y: inhibition rate. • 3.4 Double test report • 3.4.1 After one tester completed a report, another tester again checked the report to ensure that data analysis was correct. • 3.4.2 The data was exported from the software and manually analyzed. • 3.4.2.1 The rate was converted into the inhibition rate. All the IC50 values were first calculated with the inhibition rate using Prism GraphPad 6.0. • 3.4.2.2 Then the IC50 value was recalculated using the ratio to check the accuracy of the analysis. • 3.4.3 The number of all the compounds was ensured to be correct.

[6] = tested on: PC-9 EGFR-Del19; experiment: Cell proliferation inhibition experiment (CCK-8), PC-9; format: cell-based; conditions: Homo sapiens, 72 h
Description: (§2) Inhibition rate %=[(A0−AS)/(A0−AC)]×100%.

[7] = tested on: HCC827 EGFR-Del19; experiment: Cell proliferation inhibition experiment (CCK-8), HCC827; format: cell-based; conditions: Homo sapiens, 72 h
Description: as §2

[8] = tested on: KC-1474:PC-9 EGFR-Del19/T790M/C797S; experiment: Cell proliferation inhibition experiment (CCK-8), KC-1474; format: cell-based; conditions: Homo sapiens, 72 h
Description: as §2

[9] = tested on: H1975 EGFR-L858R/T790M; experiment: Cell proliferation inhibition experiment (CCK-8), H1975; format: cell-based; conditions: Homo sapiens, NCI-H1975, 72 h
Description: as §2

[10] = tested on: KC-0178:NCI-1975 EGFR-L858R/T790M/C797S; experiment: Cell proliferation inhibition experiment (CCK-8), KC-0178; format: cell-based; conditions: Homo sapiens, 72 h
Description: as §2

Sequence of EGFR D770-N771 ins NPG kinase (P00533 other isoform, or with tags, fused parts or gaps del 1-668/ins NPG behind 770 limits assumed): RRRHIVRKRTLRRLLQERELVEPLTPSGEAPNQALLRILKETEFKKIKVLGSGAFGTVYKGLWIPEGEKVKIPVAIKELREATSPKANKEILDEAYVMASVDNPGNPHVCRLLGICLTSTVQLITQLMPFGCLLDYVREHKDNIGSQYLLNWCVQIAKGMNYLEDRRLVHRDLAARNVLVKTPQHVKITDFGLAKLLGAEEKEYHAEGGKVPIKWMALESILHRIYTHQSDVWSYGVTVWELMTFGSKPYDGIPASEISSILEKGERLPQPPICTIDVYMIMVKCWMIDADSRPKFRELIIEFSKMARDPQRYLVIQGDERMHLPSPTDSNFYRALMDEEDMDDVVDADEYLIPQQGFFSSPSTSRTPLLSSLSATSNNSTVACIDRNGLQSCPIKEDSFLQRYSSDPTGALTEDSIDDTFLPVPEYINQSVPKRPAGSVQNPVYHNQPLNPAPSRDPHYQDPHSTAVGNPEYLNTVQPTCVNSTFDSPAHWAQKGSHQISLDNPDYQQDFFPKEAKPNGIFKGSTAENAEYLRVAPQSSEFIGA
Sequence of EGFR (D770-N771 ins NPG T790M) kinase (P00533 other isoform, or with tags, fused parts or gaps T790M/del 1-668/ins NPG behind 770 limits assumed): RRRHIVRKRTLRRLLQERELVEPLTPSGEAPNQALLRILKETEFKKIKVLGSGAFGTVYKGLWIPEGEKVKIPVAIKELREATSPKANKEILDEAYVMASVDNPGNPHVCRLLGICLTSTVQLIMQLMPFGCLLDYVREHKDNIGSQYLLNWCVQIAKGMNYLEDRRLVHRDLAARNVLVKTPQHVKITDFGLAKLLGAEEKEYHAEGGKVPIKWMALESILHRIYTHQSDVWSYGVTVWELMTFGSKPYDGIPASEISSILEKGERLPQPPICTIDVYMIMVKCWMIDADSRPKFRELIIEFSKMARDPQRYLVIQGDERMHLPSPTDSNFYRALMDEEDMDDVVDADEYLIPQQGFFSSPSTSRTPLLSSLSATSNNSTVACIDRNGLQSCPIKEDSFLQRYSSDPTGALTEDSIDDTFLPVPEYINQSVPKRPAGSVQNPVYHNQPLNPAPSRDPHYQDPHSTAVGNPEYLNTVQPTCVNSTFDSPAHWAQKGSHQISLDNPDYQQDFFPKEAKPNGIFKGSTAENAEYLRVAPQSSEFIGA
Sequence of EGFR-Del19/T790M/C797S kinase (P00533 25-1210 T790M/C797S limits assumed, form open): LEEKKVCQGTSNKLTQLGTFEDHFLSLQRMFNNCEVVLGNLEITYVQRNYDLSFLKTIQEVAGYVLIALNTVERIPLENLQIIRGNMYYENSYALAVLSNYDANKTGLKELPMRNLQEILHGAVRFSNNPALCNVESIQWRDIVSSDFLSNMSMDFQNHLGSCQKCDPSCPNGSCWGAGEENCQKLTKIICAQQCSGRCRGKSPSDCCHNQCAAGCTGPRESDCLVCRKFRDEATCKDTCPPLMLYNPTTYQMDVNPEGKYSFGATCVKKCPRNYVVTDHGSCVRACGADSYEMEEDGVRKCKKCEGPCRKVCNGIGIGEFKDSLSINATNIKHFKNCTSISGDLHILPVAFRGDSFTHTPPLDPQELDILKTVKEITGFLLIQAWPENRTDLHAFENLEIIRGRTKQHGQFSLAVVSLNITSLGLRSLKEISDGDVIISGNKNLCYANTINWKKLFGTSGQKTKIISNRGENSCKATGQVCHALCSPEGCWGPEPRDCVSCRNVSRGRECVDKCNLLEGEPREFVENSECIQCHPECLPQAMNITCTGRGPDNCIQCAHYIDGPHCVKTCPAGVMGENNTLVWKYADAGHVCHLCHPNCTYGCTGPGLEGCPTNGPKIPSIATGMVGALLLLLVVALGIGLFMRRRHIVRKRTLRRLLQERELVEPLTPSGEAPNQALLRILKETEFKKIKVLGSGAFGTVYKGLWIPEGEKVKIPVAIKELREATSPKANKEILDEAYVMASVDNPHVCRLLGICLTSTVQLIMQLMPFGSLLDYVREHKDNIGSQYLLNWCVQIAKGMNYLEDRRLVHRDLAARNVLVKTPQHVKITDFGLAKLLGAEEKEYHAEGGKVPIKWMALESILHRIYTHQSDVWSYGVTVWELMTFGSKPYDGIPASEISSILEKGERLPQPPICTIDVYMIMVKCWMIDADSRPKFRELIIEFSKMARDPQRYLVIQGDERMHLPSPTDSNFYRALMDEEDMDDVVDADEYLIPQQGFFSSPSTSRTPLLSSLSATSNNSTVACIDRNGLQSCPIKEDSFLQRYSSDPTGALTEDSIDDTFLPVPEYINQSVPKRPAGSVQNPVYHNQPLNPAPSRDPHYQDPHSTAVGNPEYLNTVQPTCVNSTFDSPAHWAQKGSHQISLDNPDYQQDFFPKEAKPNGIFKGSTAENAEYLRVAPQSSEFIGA

SMILES | IC50 [1] [nM] | IC50 [2] [nM] | IC50 [3] [nM] | IC50 ([4]; Table 5 numeric) [µM] | IC50 [5] [nM] | IC50 [4] [µM] | IC50 [6] [µM] | IC50 [7] [µM] | IC50 [8] [µM] | IC50 [9] [µM] | IC50 [10] [µM]
CN1CCN(c2ccc(Nc3nc(NC4CC5(COC5)C4)c4c(C(=O)c5ccc(F)cc5)c[nH]c4n3)cc2)CC1 [Example 18] | 28.2 | 150 | 10 to 100 | – | – | – | – | – | – | – | –
C=CC(=O)N1CC[C@@H](Nc2nc(Nc3ccc(N4CCN(C)CC4)cc3)nc3[nH]cc(C(=O)c4ccc(F)cc4)c23)C1 [Example 26] | 3.52 | 150 | – | 0.52 | 6.31 | – | – | – | – | – | –
CN1CCN(c2ccc(Nc3nc(NC4CCOCC4)c4c(C(=O)c5ccc(F)cc5)c[nH]c4n3)cc2)CC1 [Example 40] | – | – | – | 0.23 | – | 0.1 to 1 | 0.1 to 1 | 0.1 to 1 | < 0.1 | – | –
CN1CCN(c2ccc(Nc3nc(NC4CCCCC4O)c4c(C(=O)c5ccc(F)cc5)c[nH]c4n3)cc2)CC1 (stereo not drawn) [Example 43] | – | – | 100 to 600 | – | – | – | 0.1 to 1 | 0.1 to 1 | – | 0.1 to 1 | –
C=CC(=O)N1CC[C@H](Nc2nc(Nc3ccc(N4CCN(C)CC4)cc3)nc3[nH]cc(C(=O)c4ccccc4F)c23)C1 [Example 46] | – | – | – | – | – | – | < 0.1 | 0.1 to 1 | – | < 0.1 | –
CN1CCN(c2ccc(Nc3nc(N[C@H]4CC[C@@H](O)CC4)c4c(C(=O)c5ccc(F)cc5)c[nH]c4n3)cc2)CC1 [Example 55] | – | – | 10 to 100 | – | – | 0.1 to 1 | < 0.1 | – | < 0.1 | 0.1 to 1 | 0.1 to 1
CN1CCN(c2ccc(Nc3nc(N[C@H]4CC[C@H](O)CC4)c4c(C(=O)c5ccc(F)cc5)c[nH]c4n3)cc2)CC1 [Example 56] | – | – | 10 to 100 | – | – | 0.1 to 1 | < 0.1 | – | < 0.1 | 0.1 to 1 | 1 to 2
CN1CCN(c2ccc(Nc3nc(NC4CCN(S(C)(=O)=O)CC4)c4c(C(=O)c5ccc(F)cc5)c[nH]c4n3)cc2)CC1 [Example 64] | 24.2 | 200 | 100 to 600 | – | 93.6 | – | – | – | – | – | –
CN1CCN(c2ccc(Nc3nc(NC45CC6CC(CC(O)(C6)C4)C5)c4c(C(=O)c5ccc(F)cc5)c[nH]c4n3)cc2)CC1 [Example 70] | 6.55 | 54 | 10 to 100 | – | – | – | – | – | – | – | –
CN1CCN(c2ccc(Nc3nc(NC45CC6CC(C4)C(O)C(C6)C5)c4c(C(=O)c5ccc(F)cc5)c[nH]c4n3)cc2)CC1 (stereo not drawn) [Example 71] | 4.54 | 70 | 10 to 100 | – | 9.27 | – | – | – | – | – | –
O=C(c1cccc(F)c1)c1c[nH]c2nc(Nc3ccc(N4CCOCC4)cc3)nc(N[C@H]3CC[C@H](CO)CC3)c12 [Example 92] | – | – | – | 0.07 | – | – | 0.1 to 1 | < 0.1 | – | < 0.1 | –
CN1CCN(c2ccc(Nc3nc(N[C@H]4CC[C@@H](CO)CC4)c4c(C(=O)c5ccc(F)cc5)c[nH]c4n3)cc2F)CC1 [Example 103] | – | – | 10 to 100 | – | – | 0.1 to 1 | < 0.1 | – | < 0.1 | 0.1 to 1 | 1 to 2
CCN1CCN(c2ccc(Nc3nc(N[C@H]4CC[C@@H](CO)CC4)c4c(C(=O)c5ccc(F)cc5)c[nH]c4n3)cc2)CC1 [Example 104] | 2.72 | 160 | < 10 | – | 11.4 | – | < 0.1 | – | < 0.1 | < 0.1 | 0.1 to 1
Cn1cc(Nc2nc(N[C@H]3CC[C@H](CO)CC3)c3c(C(=O)c4ccc(F)cc4)c[nH]c3n2)cn1 [Example 110] | – | – | 10 to 100 | – | – | 0.1 to 1 | < 0.1 | < 0.1 | 0.1 to 1 | – | < 0.1
Cn1cc(Nc2nc(N[C@H]3CC[C@@H](CO)CC3)c3c(C(=O)c4ccc(F)cc4)c[nH]c3n2)cn1 [Example 114] | 4.12 | 160 | < 10 | – | 18.2 | 0.1 to 1 | < 0.1 | – | < 0.1 | < 0.1 | 0.1 to 1
CN1CCC(n2cc(Nc3nc(N[C@H]4CC[C@@H](CO)CC4)c4c(C(=O)c5ccc(F)cc5)c[nH]c4n3)cn2)CC1 [Example 115] | 2.46 | 560 | < 10 | – | 8.16 | 1 to 2 | 0.1 to 1 | – | 0.1 to 1 | 0.1 to 1 | 1 to 2
COc1nn(C)cc1Nc1nc(N[C@H]2CC[C@@H](CO)CC2)c2c(C(=O)c3ccc(F)cc3)c[nH]c2n1 [Example 116] | – | – | 10 to 100 | – | – | 1 to 2 | < 0.1 | – | 0.1 to 1 | 0.1 to 1 | 1 to 2

From patent publication US20250122202A1, “EGFR INHIBITOR, PREPARATION METHOD THEREFOR AND USE THEREOF” (SHANDONG NEW TIME PHARMACEUTICAL CO., LTD., priority 2021, published 2025)
